Results taken from patent US20260001853A1, “ASCORBIC ACID DERIVATIVE OR SALT THEREOF, AND COSMETIC THEREOF” (SEIWA KASEI COMPANY, LIMITED, priority 2022, published 2026).
Blank lines part the entries; values can stand above or below the compound they belong to.

How the values were obtained:
[1] = test system: B16 melanoma 4A5 cells; assay: Melanin production inhibitory effect (theophylline-induced melanin production); format: cell-based, mouse; conditions: melanin production inhibition rate, sample at a concentration of 10 mM or less, 3 days culture, theophylline 1 mmol/L, N=4
Experimental: As a test of the whitening effect, the effect on theophylline-induced melanin production in B16 melanoma 4A5 cells was evaluated for the ascorbic acid derivatives of the present invention according to the following procedure. A similar evaluation was also performed for a known ascorbic acid derivative for comparison. The results are shown in Tables 9 to 11. • (1) B16 mouse melanoma 4A5 cells were seeded in a 48-well plate at a cell density of 8.0×10^3 cells/well. • (2) After culturing for 24 hours in Dulbecco's modified Eagle's medium (manufactured by SIGMA, hereinafter abbreviated as “D-MEM”) containing 10% fetal bovine serum, the medium was replaced with D-MEM containing 10% fetal bovine serum containing theophylline (final concentration 1 mmol/L) and a specified concentration of a sample. • (3) After culturing for 3 days in the presence of the sample, the medium was removed using an aspirator, distilled water was added, and the cells were disrupted by ultrasonication. • (4) The amount of protein was then quantified using a BCA protein assay kit (manufactured by PIERCE), and the amount of melanin produced was measured by an alkali solubilization method. Sodium hydroxide was added to the cell lysate to a final concentration of 1 mol/L, and the solution was dissolved by heating (60° C., 30 minutes), thereafter the absorbance at 405 nm was measured using a microplate reader. The amount of melanin was calculated from a calibration curve prepared using synthetic melanin (SIGMA) as a standard. The amount of melanin per unit protein was calculated by dividing the amount of melanin by the amount of protein. • (5) The melanin production inhibition rate was calculated using the following formula.
[In the formula, A represents the amount of melanin per unit protein (g/g) when the sample was added, B represents the amount of melanin per unit protein (g/g) in the normal group, and C represents the amount of melanin per unit protein (g/g) in the control group.]
The melanin production inhibition rate when the sample was measured at a concentration of 10 mM or less is expressed as follows. The measurement was performed with N=4. • <20%: ± • 20-40%: + • 40-60%: ++ • 60-100%: +++

[2] = test system: Normal human dermal fibroblasts; assay: Collagen production promoting effect (ELISA of supernatant); format: cell-based; conditions: amount of collagen produced, % with control group taken as 100%; sample at 10 mmol/L or less, 48 hours, N=3
Experimental: Normal human dermal fibroblasts were prepared in D-MEM containing 5% (v/v) fetal bovine serum to a cell density of […] cells/well, and pre incubated on a 96-well plate for 24 hours. After removing the medium, samples prepared to a predetermined concentration in D-MEM containing 5% (v/v) fetal bovine serum were added to each well and cultured for 48 hours. After completion of the culture, the amount of free collagen in the supernatant was quantified by ELISA method. The measurement was performed with N=3.
(§1) The amount of collagen produced when the samples were measured at a concentration of 10 mmol/L or less was compared with that of the control group, and the results (% values when the control group is taken as 100%) are shown in Tables 15 to 17 based on the following criteria. • <100%: ± • 100-120%: + • 120%: ++

[3] = test system: Normal human dermal fibroblasts (NHDF); assay: Hyaluronic acid production promoting effect (ELISA of supernatant); format: cell-based; conditions: amount of hyaluronic acid produced, % with control group taken as 100%; sample at 10 mmol/L or less, 48 hours, N=3
Experimental: Normal human dermal fibroblasts (NHDF) were prepared in D-MEM containing 5% (v/v) fetal bovine serum to a cell density of 2.5× 10^4 cells/well, and then pre-incubated on a 96-well plate for 24 hours. After removing the medium, samples prepared in serum-free D-MEM were added to each well and cultured for 48 hours. After the culture was completed, the amount of hyaluronic acid in the supernatant was quantified by ELISA method. The measurement was performed with N=3.
as §1, with “of hyaluronic acid” for “of collagen”, “Tables 18” for “Tables 15”, “to 20” for “to 17”, “• 120-150%:” for “• 120%:”, “++ • 150%: +++” for “++”

[4] = Stability test (residual rate by HPLC, odor, coloring); format: physicochemical; conditions: 1% aqueous solution; for Coloring / Odor: total score of 10 panelists
Experimental: With a dilute potassium hydroxide aqueous solution, 1% aqueous solution of each test sample was adjusted to pH 6, placed in a 50 mL screw tube, sealed, […], and then subjected to HPLC measurement (using a liquid chromatograph manufactured by Shimadzu Corporation) to determine the residual rate from the peak area. The residual rate, odor, and coloring degree were evaluated according to the following methods and criteria.
Residual rate: • ⊚: 90% or more • ◯: 80% or more, less than 90% • Δ: 60% or more, less than 80% • x: 20% or more, less than 60% • xx: Less than 20%
Evaluation was made by 10 panelists according to the following criteria. • 3: Almost odorless • 2: There is a slight strange odor. • 1: A strong odor is detected.
Based on the evaluation results, the following classification was made: • ⊚: Total score of 10 panelists is 25 or more • ◯: Total score of 10 panelists is 20-24 • Δ: Total score of 10 panelists is 16-19 • x: The total score of 10 panelists is 15 or less
Evaluation was made by 10 panelists according to the following criteria. • 3: Almost no change compared to immediately after preparation. • 2: Color changes compared to immediately after preparation. • 1: Strongly colored compared to immediately after preparation.
Based on the evaluation results, the following classification was made: • ◯: Total score of 10 panelists is 25 or more • Δ: Total score of 10 panelists is 16-24 • x: The total score of 10 panelists is 15 or less

[5] = pH 6, stored at 50° C., two weeks later

Compound: CCCCOC1=C(OCC(C)(C)O)[C@@H]([C@@H](O)CO)OC1=O [Synthesis Example 19, 2-O-butyl-3-O-(2-hydroxyisobutyl) ascorbic acid]
- Melanin production inhibition effect [1]: + (20-40%: +)
- Collagen production promoting effect [2]: ++ (120%: ++)

Compound: CCCCCCCCCCCCCCCCOC1=C(OCC(C)(C)O)C(=O)O[C@@H]1[C@@H](O)CO [Synthesis Example 10, 2-O-(2-hydroxyisobutyl)-3-O-hexadecylascorbic acid]
- Melanin production inhibition effect [1]: + (20-40%: +)

Compound: C=CCOC1=C(OCC(C)(C)O)C(=O)O[C@@H]1[C@@H](O)CO [Synthesis Example 11, 2-O-(2-hydroxyisobutyl)-3-O-allylascorbic acid]
- Melanin production inhibition effect [1]: +++ (60-100%: +++)
- Collagen production promoting effect [2]: ++ (120%: ++)
- Hyaluronic acid production promoting effect [3]: ++ (120-150%: ++)

Compound: CCCOC1=C(OCC(C)(C)O)[C@@H]([C@@H](O)CO)OC1=O [Synthesis Example 33, 2-O-propyl-3-O-(2-hydroxyisobutyl) ascorbic acid]
- Melanin production inhibition effect [1]: ++ (40-60%: ++)
- Collagen production promoting effect [2]: ++ (120%: ++)
- Hyaluronic acid production promoting effect [3]: ++ (120-150%: ++)

Compound: CCCCCCCCCCOC1=C(OCC(C)(C)O)C(=O)O[C@@H]1[C@@H](O)CO [Synthesis Example 7, 2-O-(2-hydroxyisobutyl)-3-O-decyl ascorbic acid]
- Melanin production inhibition effect [1]: +++ (60-100%: +++)
- Collagen production promoting effect [2]: ++ (120%: ++)

Compound: CCCCCCCCCCCCCCCCOC1=C(OCC(C)(C)O)[C@@H]([C@@H](O)CO)OC1=O [Synthesis Example 25, 2-O-hexadecyl-3-O-(2-hydroxyisobutyl) ascorbic acid]
- Melanin production inhibition effect [1]: + (20-40%: +)
- Collagen production promoting effect [2]: ++ (120%: ++)
- Hyaluronic acid production promoting effect [3]: ++ (120-150%: ++)

Compound: CCCCCCOC1=C(OCC(C)(C)O)[C@@H]([C@@H](O)CO)OC1=O [Synthesis Example 20, 2-O-hexyl-3-O-(2-hydroxyisobutyl) ascorbic acid]
- Melanin production inhibition effect [1]: ++ (40-60%: ++)
- Collagen production promoting effect [2]: ++ (120%: ++)

Compound: CCCCCCCCOC1=C(OCC(C)(C)O)[C@@H]([C@@H](O)CO)OC1=O [Synthesis Example 21, 2-O-octyl-3-O-(2-hydroxyisobutyl) ascorbic acid]
- Melanin production inhibition effect [1]: ++ (40-60%: ++)
- Collagen production promoting effect [2]: ++ (120%: ++)
- Hyaluronic acid production promoting effect [3]: +++ (150%: +++)

Compound: CCCCCCCCCCOC1=C(OCC(C)(C)O)[C@@H]([C@@H](O)CO)OC1=O [Synthesis Example 22, 2-O-decyl-3-O-(2-hydroxyisobutyl) ascorbic acid]
- Melanin production inhibition effect [1]: ++ (40-60%: ++)

Compound: CC(C)(O)COC1=C(OCC(O)CO)C(=O)O[C@@H]1[C@@H](O)CO (stereo partly shown) [Synthesis Example 28, 2-O-glyceryl-3-O-(2-hydroxyisobutyl) ascorbic acid]
- Melanin production inhibition effect [1]: + (20-40%: +)
- Hyaluronic acid production promoting effect [3]: ++ (120-150%: ++)

Compound: CCCCCCCCCCCCCCOC1=C(OCC(C)(C)O)C(=O)O[C@@H]1[C@@H](O)CO [Synthesis Example 9, 2-O-(2-hydroxyisobutyl)-3-O-tetradecyl ascorbic acid]
- Melanin production inhibition effect [1]: ++ (40-60%: ++)
- Collagen production promoting effect [2]: ++ (120%: ++)
- Hyaluronic acid production promoting effect [3]: +++ (150%: +++)

Compound: CCCCCCCCOC1=C(OCC(C)(C)O)C(=O)O[C@@H]1[C@@H](O)CO [Synthesis Example 6, 2-O-(2-hydroxyisobutyl)-3-O-octyl ascorbic acid]
- Melanin production inhibition effect [1]: +++ (60-100%: +++)
- Collagen production promoting effect [2]: ++ (120%: ++)

Compound: CCCCCCOC1=C(OCC(C)(C)O)C(=O)O[C@@H]1[C@@H](O)CO [Synthesis Example 5, 2-O-(2-hydroxyisobutyl)-3-O-hexyl ascorbic acid]
- Melanin production inhibition effect [1]: + (20-40%: +)
- Collagen production promoting effect [2]: ++ (120%: ++)

Compound: CCCOC1=C(OCC(C)(C)O)C(=O)O[C@@H]1[C@@H](O)CO [Synthesis Example 32, 2-O-(2-hydroxyisobutyl)-3-O-propylascorbic acid]
- Melanin production inhibition effect [1]: ++ (40-60%: ++)
- Collagen production promoting effect [2]: ++ (120%: ++)
- Hyaluronic acid production promoting effect [3]: ++ (120-150%: ++)

- Residual rate ([4]; pH 6, 50° C., initial): ⊚ (⊚: 90% or more)
- Residual rate [4, 5]: Δ (Δ: 60% or more, less than 80%)
Compound: O=C1O[C@H]([C@@H](O)CO)C(O)=C1O [Ascorbic acid]
- Coloring ([4]; pH 6, 50° C., initial): ◯ (◯: Total score of 10 panelists is 25 or more)
- Odor ([4]; pH 6, 50° C., initial): ◯ (◯: Total score of 10 panelists is 20-24)
- Coloring [4, 5]: Δ (Δ: Total score of 10 panelists is 16-24)
- Odor [4, 5]: Δ (Δ: Total score of 10 panelists is 16-19)

Compound: CCCCOC1=C(OCC(C)(C)O)C(=O)O[C@@H]1[C@@H](O)CO [Synthesis Example 4, 2-O-(2-hydroxyisobutyl)-3-O-butylascorbic acid]
- Collagen production promoting effect [2]: ++ (120%: ++)

Compound: CCCCOCC(O)COC1=C(OCC(C)(C)O)C(C(O)CO)OC1=O (stereo not shown) [Synthesis Example 29, 2-O-(2-hydroxy-3-O-butyl)-3-O-(2-hydroxyisobutyl) ascorbic acid]
- Collagen production promoting effect [2]: ++ (120%: ++)

Compound: CCCCC(CC)COCC(O)COC1=C(OCC(C)(C)O)C(C(O)CO)OC1=O (stereo not shown) [Synthesis Example 30, 2-O-(2-hydroxy-3-O-ethylhexyl)-3-O-(2-hydroxyisobutyl) ascorbic acid]
- Melanin production inhibition effect [1]: + (20-40%: +)
- Hyaluronic acid production promoting effect [3]: +++ (150%: +++)

Compound: CCCCCCCCCCCCOCC(O)COC1=C(OCC(C)(C)O)C(=O)OC1C(O)CO (stereo not shown) [Synthesis Example 16, 2-O-(2-hydroxyisobutyl)-3-O-(2-hydroxy-3-O-dodecyl) ascorbic acid]
- Melanin production inhibition effect [1]: + (20-40%: +)
- Hyaluronic acid production promoting effect [3]: ++ (120-150%: ++)

Compound: CCCCC(CC)COCC(O)COC1=C(OCC(C)(C)O)C(=O)OC1C(O)CO (stereo not shown) [Synthesis Example 15, 2-O-(2-hydroxyisobutyl)-3-O-(2-hydroxy-3-O-ethylhexyl) ascorbic acid]
- Melanin production inhibition effect [1]: + (20-40%: +)
- Collagen production promoting effect [2]: ++ (120%: ++)
